Results reported in PMC7083837 (Nature Communications, 2020).
Where “and” joins values, the source holds several entries; their conditions need not be identical. Identical values can stand only once. Blank lines part the entries; values can stand above or below the molecule they belong to.

Key:
SERT WT [1] = biological target: T1, SERT WT (Homo sapiens, UniProt P31645); assay: [3H]5-HT uptake in intact COS-7 cells; type: cell-based; conditions: read-out: KM (5-HT); SERT WT
T1 construct: expressed in transfected cells; host or cells: COS-7
T1 sequence (P31645 whole entry): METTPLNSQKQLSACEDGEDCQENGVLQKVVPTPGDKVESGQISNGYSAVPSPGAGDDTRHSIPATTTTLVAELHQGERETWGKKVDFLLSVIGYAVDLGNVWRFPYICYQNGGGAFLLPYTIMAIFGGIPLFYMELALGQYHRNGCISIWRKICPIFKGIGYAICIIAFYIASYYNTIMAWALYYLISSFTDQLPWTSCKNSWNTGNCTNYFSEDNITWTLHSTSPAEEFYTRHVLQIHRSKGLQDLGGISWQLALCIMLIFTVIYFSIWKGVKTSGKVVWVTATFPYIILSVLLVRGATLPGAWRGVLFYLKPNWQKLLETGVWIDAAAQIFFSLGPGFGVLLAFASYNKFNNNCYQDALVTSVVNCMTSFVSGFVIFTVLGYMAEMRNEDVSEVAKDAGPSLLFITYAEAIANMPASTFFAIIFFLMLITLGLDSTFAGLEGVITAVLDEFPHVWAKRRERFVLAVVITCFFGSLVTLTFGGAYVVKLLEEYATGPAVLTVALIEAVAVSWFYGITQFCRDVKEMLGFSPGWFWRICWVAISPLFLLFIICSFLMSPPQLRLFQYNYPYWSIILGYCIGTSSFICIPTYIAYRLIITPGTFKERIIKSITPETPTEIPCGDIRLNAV

SERT WT [2] = biological target: T1, SERT WT; assay: [3H]S-CIT competition (equilibrium) binding on COS-7 membranes; conditions: COS-7 membranes, SERT WT; read-out: Inhibition of [^3H]S-CIT binding (IC50);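 also: transiently transfected cell membranes incubated 1 h at room temperature with 5–10 nM [3H]S-CIT, nonspecific binding defined using 5 µM paroxetine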
SERT WT [3] = biological target: T1, SERT WT; assay: [3H]S-CIT dissociation rate assay (allosteric potency); type: binding; conditions: for IC50: read-out: Allosteric potency inhibition of [^3H]S-CIT dissociation (IC50)
SERT WT [4] = biological target: T1, SERT WT; assay: [3H]IMI dissociation rate assay (allosteric potency); type: binding; conditions: SERT WT; for IC50: read-out: Allosteric potency inhibition of [^3H]IMI dissociation (IC50);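 as to all read-outs here: membranes of COS-7 cells transiently expressing hSERT, dissociation of prebound radioligand tracked by filtration over seven time points (5–70 min), rate constant with test ligand expressed relative to buffer-only rate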
[5] = system: extracellular 5-HT levels in rat hippocampus; assay: Microdialysis in ventral hippocampus of freely moving rats; type: in vivo; set-up: extracellular 5-HT level / AUC: unit not given here; conditions: single animals;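 as to extracellular 5-HT level: percent of mean basal level in three fractions before perfusion start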
[6] = log conc -5.9101, listed as AF60098
[7] = log conc -5.4318, listed as AE56461
[8] = log conc -5.9101, listed as AE56461

SMILES: NCCc1c[nH]c2ccc(O)cc12 [5-HT, Serotonin, reference compound]
Km (SERT WT [1]): 0.52 µM

IC50 (SERT WT [2]): 0.079 µM | IC50 (SERT WT [3]): 10.4 µM | IC50 (SERT WT [4]): 0.192 µM and 0.19 µM
SMILES: NC(=O)c1ccc2c(c1)CO[C@@]2(CCCN1CC=C(c2ccc3ccc(=O)[nH]c3c2)CC1)c1ccc(F)cc1 [AF, (S)-1-(4-fluorophenyl)-1-(3-(4-(2-oxo-1,2-dihydroquinolin-7-yl)-3,6-dihydropyridin-1(2H)-yl)propyl)-1,3-dihydroisobenzofuran-5-carboxamide]
[^3H]S-CIT dissociation relative to control (source data Fig 3B) (SERT WT [3]; log conc -4, listed as AF60098): 0.1701 and 0.2211 and 0.1573 and 0.2182 and 0.2661 | [^3H]S-CIT dissociation relative to control (source data Fig 3B) (SERT WT [3]; log conc -4.47756, listed as AF60098): 0.2756 and 0.2914 and 0.2326 and 0.2923 and 0.3084 | [^3H]S-CIT dissociation relative to control (source data Fig 3B) (SERT WT [3]; log conc -4.95468, listed as AF60098): 0.3758 and 0.4105 and 0.4138 and 0.4162 and 0.3863 | [^3H]S-CIT dissociation relative to control (source data Fig 3B) (SERT WT [3]; log conc -5.4318, listed as AF60098): 0.7059 and 0.6013 and 0.6811 and 0.5633 and 0.7156 | [^3H]S-CIT dissociation relative to control (source data Fig 3B) (SERT WT [3]; [6]): 0.8853 and 0.874 and 0.8934 and 0.8911 and 0.9427 | [^3H]S-CIT dissociation relative to control (source data Fig 3B) (SERT WT [3]; log conc -6.38561, listed as AF60098): 0.9692 and 0.7987 and 0.9599 and 0.9034 and 0.9936 | [^3H]S-CIT dissociation relative to control (source data Fig 3B) (SERT WT [3]; log conc -6.86273, listed as AF60098): 0.955 and 0.9328 and 0.9433 and 0.9567 and 0.9549 | [^3H]IMI dissociation relative to control (source data Fig 3C) (SERT WT [4]; [6]): 0.2397 and 0.2132 and 0.1806 and 0.1901 and 0.1781 | [^3H]IMI dissociation relative to control (source data Fig 3C) (SERT WT [4]; log conc -6.3856, listed as AF60098): 0.6028 and 0.4774 and 0.425 and 0.3481 and 0.3211 | [^3H]IMI dissociation relative to control (source data Fig 3C) (SERT WT [4]; log conc -6.8627, listed as AF60098): 0.7993 and 0.6981 and 0.6134 and 0.5939 and 0.5386 | [^3H]IMI dissociation relative to control (source data Fig 3C) (SERT WT [4]; log conc -7.3398, listed as AF60098): 0.7825 and 0.9163 and 0.612 and 0.781 and 0.6966 | [^3H]IMI dissociation relative to control (source data Fig 3C) (SERT WT [4]; log conc -7.817, listed as AF60098): 0.8219 and 0.9518 and 0.9715 and 0.9341 and 0.8939

IC50 (SERT WT [2]): 1.04 µM | [^3H]S-CIT dissociation relative to control (source data Fig 3B) (SERT WT [3]; log conc -4, listed as AE56461): 0.304 and 0.27 and 0.327 | [^3H]S-CIT dissociation relative to control (source data Fig 3B) (SERT WT [3]; log conc -4.47756, listed as AE56461): 0.466 and 0.496 and 0.522 | [^3H]S-CIT dissociation relative to control (source data Fig 3B) (SERT WT [3]; log conc -4.95468, listed as AE56461): 0.654 and 0.732 and 0.716 | [^3H]S-CIT dissociation relative to control (source data Fig 3B) (SERT WT [3]; [7]): 0.892 and 0.93 and 0.888 | [^3H]S-CIT dissociation relative to control (source data Fig 3B) (SERT WT [3]; [8]): 0.912 and 1.007 and 0.973 | [^3H]S-CIT dissociation relative to control (source data Fig 3B) (SERT WT [3]; log conc -6.38561, listed as AE56461): 0.927 and 1.032 and 0.97 | [^3H]S-CIT dissociation relative to control (source data Fig 3B) (SERT WT [3]; log conc -6.86273, listed as AE56461): 0.952 and 1.031 and 0.987 | IC50 (SERT WT [3]): 33.8 µM | IC50 (SERT WT [4]): 0.119 µM and 0.12 µM
SMILES: NC(=O)c1ccc2c(c1)CO[C@@]2(CCCN1CCC(c2ccc3c(c2)NC(=O)CC3)CC1)c1ccc(F)cc1 [AE, (S)-1-(4-fluorophenyl)-1-(3-(4-(2-oxo-1,2,3,4-tetrahydroquinolin-7-yl)piperidin-1-yl)propyl)-1,3-dihydroisobenzofuran-5-carboxamide]
[^3H]IMI dissociation relative to control (source data Fig 3C) (SERT WT [4]; log conc -4.4776, listed as AE56461): 0.06439 and 0.064 and 0.0867 and 0.04446 and 0.04701 | [^3H]IMI dissociation relative to control (source data Fig 3C) (SERT WT [4]; [7]): 0.0763 and 0.076 and 0.0996 and 0.0916 and 0.07313 | [^3H]IMI dissociation relative to control (source data Fig 3C) (SERT WT [4]; [8]): 0.1205 and 0.121 and 0.184 and 0.1786 and 0.1244 | [^3H]IMI dissociation relative to control (source data Fig 3C) (SERT WT [4]; log conc -6.3856, listed as AE56461): 0.2609 and 0.261 and 0.334 and 0.3145 and 0.2627 | [^3H]IMI dissociation relative to control (source data Fig 3C) (SERT WT [4]; log conc -6.8627, listed as AE56461): 0.4485 and 0.449 and 0.476 and 0.4376 and 0.458 | [^3H]IMI dissociation relative to control (source data Fig 3C) (SERT WT [4]; log conc -7.3398, listed as AE56461): 0.6779 and 0.678 and 0.684 and 0.679 and 0.715 | [^3H]IMI dissociation relative to control (source data Fig 3C) (SERT WT [4]; log conc -7.817, listed as AE56461): 0.9119 and 0.9318 and 0.9209 and 0.831 and 0.9158 | [^3H]IMI dissociation relative to control (source data Fig 3C) (SERT WT [4]; log conc -8.2941, listed as AE56461): 1.0028 and 1.006 and 0.9639 and 1.0302 and 1.0089 | [^3H]IMI dissociation relative to control (source data Fig 3C) (SERT WT [4]; log conc -8.7712, listed as AE56461): 0.9594 and 0.977 and 0.9693 and 1.1187 and 1.1091

SMILES: CN(C)CCCN1c2ccccc2CCc2ccccc21 [imipramine, reference compound]
AUC ([5]; Fig 6B Inset): 84 and 92 and 130 and 62 and 48 and 46 and 143 and 182 and 163 and 129 and 74 and 127 and 73 | extracellular 5-HT level ([5]; Fig 6B, Time -40): 77.25 and 153.32 and 98.52 and 112.22 and 48.77 and 123.66 and 115.15 and 92.18 and 91.72 and 110.66 and 146.17
